# Results reported in the kinase profiling compilation of Christmann-Franck et al. (2016).
# What was measured:
# Assay in all cases: KINOMEscan competition binding
# Conditions in all cases: compound 10.0 µM
# ACVR1B (human) = ACVR1B (human) (UniProt P36896)
# EPHA1 (human) = EPHA1 (human) (UniProt P21709)
# MAP3K12 (human) = MAP3K12 (human) (UniProt Q12852)
# ULK3 (human) = ULK3 (human) (UniProt Q6PHR2)
# CDK7 (human) = CDK7 (human) (UniProt P50613)
# TGFBR1 (human) = TGFBR1 (human) (UniProt P36897)
# PHKG1 (human) = PHKG1 (human) (UniProt Q16816)
# SRC (human) = SRC (human) (UniProt P12931)
# PRKX (human) = PRKX (human) (UniProt P51817)
# TLK2 (human) = TLK2 (human) (UniProt Q86UE8)
# TESK1 (human) = TESK1 (human) (UniProt Q15569)
# MAP3K4 (human) = MAP3K4 (human) (UniProt Q9Y6R4)
# TSSK1B (human) = TSSK1B (human) (UniProt Q9BXA7)
# GRK4 (human) = GRK4 (human) (UniProt P32298)
# MAP2K3 (human) = MAP2K3 (human) (UniProt P46734)
# Sequence of MAP2K3 (human) (P46734 whole entry, looked up): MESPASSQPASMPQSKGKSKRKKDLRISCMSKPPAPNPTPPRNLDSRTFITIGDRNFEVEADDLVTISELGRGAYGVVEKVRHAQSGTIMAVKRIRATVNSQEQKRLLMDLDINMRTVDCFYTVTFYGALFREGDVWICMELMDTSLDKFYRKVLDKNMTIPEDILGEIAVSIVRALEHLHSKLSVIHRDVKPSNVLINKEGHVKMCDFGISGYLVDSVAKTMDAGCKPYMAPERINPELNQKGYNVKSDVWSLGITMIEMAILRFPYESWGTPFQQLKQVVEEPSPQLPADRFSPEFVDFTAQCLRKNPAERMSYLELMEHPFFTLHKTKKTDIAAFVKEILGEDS
# EPHB1 (human) = EPHB1 (human) (UniProt P54762)
# MUSK (human) = MUSK (human) (UniProt O15146)
# DYRK1B (human) = DYRK1B (human) (UniProt Q9Y463)
# Sequence of DYRK1B (human) (Q9Y463 whole entry, looked up): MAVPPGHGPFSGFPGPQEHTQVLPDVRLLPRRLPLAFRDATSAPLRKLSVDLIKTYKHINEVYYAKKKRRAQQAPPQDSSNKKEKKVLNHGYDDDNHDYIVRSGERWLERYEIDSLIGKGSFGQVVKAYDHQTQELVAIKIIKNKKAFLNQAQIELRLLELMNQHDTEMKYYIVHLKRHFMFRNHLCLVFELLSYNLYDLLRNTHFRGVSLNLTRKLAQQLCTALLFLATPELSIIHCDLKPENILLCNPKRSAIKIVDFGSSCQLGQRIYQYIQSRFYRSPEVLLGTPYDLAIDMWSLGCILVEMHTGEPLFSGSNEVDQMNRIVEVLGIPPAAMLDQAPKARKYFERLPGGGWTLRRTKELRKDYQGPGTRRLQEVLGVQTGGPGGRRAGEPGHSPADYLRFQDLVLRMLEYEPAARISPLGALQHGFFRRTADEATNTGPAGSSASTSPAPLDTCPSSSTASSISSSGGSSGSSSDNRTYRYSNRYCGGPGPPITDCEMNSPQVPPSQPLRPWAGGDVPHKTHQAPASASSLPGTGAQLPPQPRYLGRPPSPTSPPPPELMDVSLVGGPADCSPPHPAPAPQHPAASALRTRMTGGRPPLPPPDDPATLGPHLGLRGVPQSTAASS
# HIPK4 (human) = HIPK4 (human) (UniProt Q8NE63)
# TNIK (human) = TNIK (human) (UniProt Q9UKE5)
# MST4 (human) = MST4 (human) (UniProt Q9P289)
# MAPKAPK2 (human) = MAPKAPK2 (human) (UniProt P49137)
# [1] = system: MET (human), P08581 [Y1235D]
# DAPK1 (human) = DAPK1 (human) (UniProt P53355)
# MATK (human) = MATK (human) (UniProt P42679)
# DAPK3 (human) = DAPK3 (human) (UniProt O43293)
# Sequence of DAPK3 (human) (O43293 whole entry, looked up): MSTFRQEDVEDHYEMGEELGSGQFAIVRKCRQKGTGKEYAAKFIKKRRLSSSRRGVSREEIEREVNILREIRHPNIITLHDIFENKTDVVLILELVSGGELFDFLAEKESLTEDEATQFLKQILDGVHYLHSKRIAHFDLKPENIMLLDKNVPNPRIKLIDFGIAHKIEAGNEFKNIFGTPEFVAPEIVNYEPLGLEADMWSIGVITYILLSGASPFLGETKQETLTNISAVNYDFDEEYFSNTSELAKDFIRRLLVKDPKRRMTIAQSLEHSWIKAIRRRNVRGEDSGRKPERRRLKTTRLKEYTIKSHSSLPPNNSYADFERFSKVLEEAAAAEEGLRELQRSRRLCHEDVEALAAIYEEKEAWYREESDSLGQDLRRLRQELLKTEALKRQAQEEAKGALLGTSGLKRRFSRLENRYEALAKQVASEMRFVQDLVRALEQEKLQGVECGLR
# SRPK1 (human) = SRPK1 (human) (UniProt Q96SB4)
# FES (human) = FES (human) (UniProt P07332)
# Sequence of FES (human) (P07332 whole entry, looked up): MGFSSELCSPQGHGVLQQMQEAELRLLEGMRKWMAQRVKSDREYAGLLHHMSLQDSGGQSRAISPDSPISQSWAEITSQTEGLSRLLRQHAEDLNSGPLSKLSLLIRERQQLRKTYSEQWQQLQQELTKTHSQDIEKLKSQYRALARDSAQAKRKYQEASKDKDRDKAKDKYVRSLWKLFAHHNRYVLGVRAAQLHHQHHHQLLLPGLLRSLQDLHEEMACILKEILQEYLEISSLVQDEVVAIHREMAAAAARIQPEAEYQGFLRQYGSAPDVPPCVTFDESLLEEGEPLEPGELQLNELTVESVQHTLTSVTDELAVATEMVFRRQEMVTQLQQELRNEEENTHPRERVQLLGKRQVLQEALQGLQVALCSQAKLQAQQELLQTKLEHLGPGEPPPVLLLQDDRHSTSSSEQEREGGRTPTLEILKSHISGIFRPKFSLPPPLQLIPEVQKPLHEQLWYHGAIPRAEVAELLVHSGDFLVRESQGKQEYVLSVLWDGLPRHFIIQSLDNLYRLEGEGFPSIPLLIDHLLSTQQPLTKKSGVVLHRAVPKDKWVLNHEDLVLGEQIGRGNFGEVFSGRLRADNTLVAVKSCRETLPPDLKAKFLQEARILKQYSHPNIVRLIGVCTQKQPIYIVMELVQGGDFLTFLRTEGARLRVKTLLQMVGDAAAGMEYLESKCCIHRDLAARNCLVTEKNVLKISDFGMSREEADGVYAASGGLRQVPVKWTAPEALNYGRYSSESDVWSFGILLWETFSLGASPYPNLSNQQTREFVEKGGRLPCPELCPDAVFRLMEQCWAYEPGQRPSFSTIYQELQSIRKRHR
# DCLK2 (human) = DCLK2 (human) (UniProt Q8N568)
# Sequence of DCLK2 (human) (Q8N568 whole entry, looked up): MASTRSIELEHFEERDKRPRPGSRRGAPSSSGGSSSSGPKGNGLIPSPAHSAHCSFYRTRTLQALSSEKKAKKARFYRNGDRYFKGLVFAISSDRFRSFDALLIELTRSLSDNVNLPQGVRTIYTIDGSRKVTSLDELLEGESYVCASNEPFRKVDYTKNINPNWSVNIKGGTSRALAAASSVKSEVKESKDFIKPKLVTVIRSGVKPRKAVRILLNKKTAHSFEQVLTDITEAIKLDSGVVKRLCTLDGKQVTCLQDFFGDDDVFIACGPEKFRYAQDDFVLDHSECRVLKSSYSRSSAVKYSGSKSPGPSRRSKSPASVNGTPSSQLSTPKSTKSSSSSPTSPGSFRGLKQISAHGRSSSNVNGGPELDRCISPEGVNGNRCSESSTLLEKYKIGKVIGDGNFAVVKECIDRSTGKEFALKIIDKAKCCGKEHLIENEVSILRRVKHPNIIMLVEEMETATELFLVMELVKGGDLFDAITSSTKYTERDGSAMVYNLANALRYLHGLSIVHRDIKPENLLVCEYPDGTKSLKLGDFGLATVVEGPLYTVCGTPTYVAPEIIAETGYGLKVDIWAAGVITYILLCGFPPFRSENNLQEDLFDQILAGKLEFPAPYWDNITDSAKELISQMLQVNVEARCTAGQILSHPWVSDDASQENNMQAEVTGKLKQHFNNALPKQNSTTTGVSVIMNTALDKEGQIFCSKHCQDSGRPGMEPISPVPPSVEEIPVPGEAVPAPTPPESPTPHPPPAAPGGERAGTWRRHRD
# STK39 (human) = STK39 (human) (UniProt Q9UEW8)
# [2] = biological target: JAK3 JH1 catalytic (human) (UniProt P52333)
# STK24 (human) = STK24 (human) (UniProt Q9Y6E0)
# Sequence of STK24 (human) (Q9Y6E0 whole entry, looked up): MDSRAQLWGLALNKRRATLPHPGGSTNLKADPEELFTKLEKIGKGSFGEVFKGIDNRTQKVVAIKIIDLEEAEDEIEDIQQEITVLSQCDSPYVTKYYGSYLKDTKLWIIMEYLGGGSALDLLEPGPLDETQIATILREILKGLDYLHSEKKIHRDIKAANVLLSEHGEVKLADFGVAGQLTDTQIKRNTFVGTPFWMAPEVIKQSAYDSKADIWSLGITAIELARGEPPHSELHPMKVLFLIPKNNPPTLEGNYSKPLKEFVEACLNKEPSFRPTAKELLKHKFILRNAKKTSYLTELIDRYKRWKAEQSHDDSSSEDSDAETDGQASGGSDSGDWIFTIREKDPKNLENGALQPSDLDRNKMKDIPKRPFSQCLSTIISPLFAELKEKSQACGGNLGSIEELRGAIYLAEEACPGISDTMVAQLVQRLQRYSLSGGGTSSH
# YSK4 (human) = YSK4 (human) (UniProt Q56UN5)
# Sequence of YSK4 (human) (Q56UN5 whole entry, looked up): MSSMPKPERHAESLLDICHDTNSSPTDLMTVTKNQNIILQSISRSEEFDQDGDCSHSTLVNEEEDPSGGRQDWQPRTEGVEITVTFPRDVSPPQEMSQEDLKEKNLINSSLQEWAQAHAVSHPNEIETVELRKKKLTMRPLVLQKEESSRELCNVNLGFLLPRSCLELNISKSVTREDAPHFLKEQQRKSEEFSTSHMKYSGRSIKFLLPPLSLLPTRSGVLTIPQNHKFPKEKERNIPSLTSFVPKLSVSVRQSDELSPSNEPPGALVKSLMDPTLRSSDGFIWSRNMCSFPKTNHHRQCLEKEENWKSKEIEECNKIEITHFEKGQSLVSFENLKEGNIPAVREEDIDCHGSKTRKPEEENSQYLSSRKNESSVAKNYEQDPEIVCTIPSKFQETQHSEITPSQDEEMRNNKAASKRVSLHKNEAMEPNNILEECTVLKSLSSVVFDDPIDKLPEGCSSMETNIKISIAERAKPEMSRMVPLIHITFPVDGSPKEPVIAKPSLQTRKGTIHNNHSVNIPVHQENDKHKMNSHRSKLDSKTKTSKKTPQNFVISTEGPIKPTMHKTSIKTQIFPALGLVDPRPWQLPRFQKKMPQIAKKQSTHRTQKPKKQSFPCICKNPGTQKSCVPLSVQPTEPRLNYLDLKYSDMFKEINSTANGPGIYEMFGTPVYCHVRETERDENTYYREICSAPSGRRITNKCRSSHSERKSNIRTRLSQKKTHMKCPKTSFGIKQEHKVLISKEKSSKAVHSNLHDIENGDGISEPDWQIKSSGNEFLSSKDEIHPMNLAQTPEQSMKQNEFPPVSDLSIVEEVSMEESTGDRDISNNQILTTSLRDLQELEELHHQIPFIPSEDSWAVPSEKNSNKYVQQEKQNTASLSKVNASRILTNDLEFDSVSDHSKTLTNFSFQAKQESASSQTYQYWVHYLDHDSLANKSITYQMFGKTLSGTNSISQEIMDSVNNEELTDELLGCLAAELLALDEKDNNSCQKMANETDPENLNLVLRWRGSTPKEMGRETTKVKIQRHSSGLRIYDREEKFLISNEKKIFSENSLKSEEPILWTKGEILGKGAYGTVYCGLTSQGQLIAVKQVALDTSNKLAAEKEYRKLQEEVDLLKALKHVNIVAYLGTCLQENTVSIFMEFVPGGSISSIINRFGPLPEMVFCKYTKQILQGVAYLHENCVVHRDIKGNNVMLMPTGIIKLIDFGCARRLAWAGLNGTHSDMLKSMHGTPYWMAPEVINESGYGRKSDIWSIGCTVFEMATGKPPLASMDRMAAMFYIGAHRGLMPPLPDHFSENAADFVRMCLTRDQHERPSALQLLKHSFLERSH
# DMPK (human) = DMPK (human) (UniProt Q09013)
# PI4KB (human) = PI4KB (human) (UniProt Q9UBF8)
# EPHB2 (human) = EPHB2 (human) (UniProt P29323)
# LATS1 (human) = LATS1 (human) (UniProt O95835)
# [3] = system: EIF2AK4 KD2 (human), Q9P2K8 [S808G]
# MAPK3 (human) = MAPK3 (human) (UniProt P27361)
# CDK14 (human) = CDK14 (human) (UniProt O94921)
# SIK1 (human) = SIK1 (human) (UniProt P57059)
# [4] = system: RET (human), P07949 [M918T]
smiles,measurement,setting,value
O=C1Nc2cc(Br)ccc2/C1=C1/Nc2ccccc2/C1=N\O,"kinase still bound, per cent of control",ACVR1B (human),77%
same,"kinase still bound, per cent of control",EPHA1 (human),85%
same,"kinase still bound, per cent of control",MAP3K12 (human),19%
same,"kinase still bound, per cent of control",ULK3 (human),1.3%
same,"kinase still bound, per cent of control",CDK7 (human),12%
same,"kinase still bound, per cent of control",TGFBR1 (human),83%
same,"kinase still bound, per cent of control",PHKG1 (human),15%
same,"kinase still bound, per cent of control",SRC (human),0.15%
same,"kinase still bound, per cent of control",PRKX (human),100%
same,"kinase still bound, per cent of control",TLK2 (human),56%
same,"kinase still bound, per cent of control",TESK1 (human),67%
same,"kinase still bound, per cent of control",MAP3K4 (human),85%
same,"kinase still bound, per cent of control",TSSK1B (human),100%
same,"kinase still bound, per cent of control",GRK4 (human),1.8%
same,"kinase still bound, per cent of control",MAP2K3 (human),33%
same,"kinase still bound, per cent of control",EPHB1 (human),43%
same,"kinase still bound, per cent of control",MUSK (human),83%
same,"kinase still bound, per cent of control",DYRK1B (human),13%
same,"kinase still bound, per cent of control",HIPK4 (human),3%
same,"kinase still bound, per cent of control",TNIK (human),4.6%
same,"kinase still bound, per cent of control",MST4 (human),35%
same,"kinase still bound, per cent of control",MAPKAPK2 (human),100%
same,"kinase still bound, per cent of control",[1],100%
same,"kinase still bound, per cent of control",DAPK1 (human),3.6%
same,"kinase still bound, per cent of control",MATK (human),30%
same,"kinase still bound, per cent of control",DAPK3 (human),2.7%
same,"kinase still bound, per cent of control",SRPK1 (human),5%
same,"kinase still bound, per cent of control",FES (human),100%
same,"kinase still bound, per cent of control",DCLK2 (human),100%
same,"kinase still bound, per cent of control",STK39 (human),37%
same,"kinase still bound, per cent of control",[2],6.3%
same,"kinase still bound, per cent of control",STK24 (human),12%
same,"kinase still bound, per cent of control",YSK4 (human),3.8%
same,"kinase still bound, per cent of control",DMPK (human),100%
same,"kinase still bound, per cent of control",PI4KB (human),39%
same,"kinase still bound, per cent of control",EPHB2 (human),77%
same,"kinase still bound, per cent of control",LATS1 (human),70%
same,"kinase still bound, per cent of control",[3],14%
same,"kinase still bound, per cent of control",MAPK3 (human),100%
same,"kinase still bound, per cent of control",CDK14 (human),18%
same,"kinase still bound, per cent of control",SIK1 (human),2.6%
same,"kinase still bound, per cent of control",[4],0%
Cc1cnc(-c2cnc(NCCNc3ccc(C#N)cn3)nc2-c2ccc(Cl)cc2Cl)[nH]1,"kinase still bound, per cent of control",ACVR1B (human),100%
same,"kinase still bound, per cent of control",EPHA1 (human),100%
same,"kinase still bound, per cent of control",MAP3K12 (human),100%
same,"kinase still bound, per cent of control",ULK3 (human),100%
same,"kinase still bound, per cent of control",CDK7 (human),64%
same,"kinase still bound, per cent of control",TGFBR1 (human),100%
same,"kinase still bound, per cent of control",PHKG1 (human),100%
same,"kinase still bound, per cent of control",SRC (human),100%
same,"kinase still bound, per cent of control",PRKX (human),100%
same,"kinase still bound, per cent of control",TLK2 (human),80%
same,"kinase still bound, per cent of control",TESK1 (human),100%
same,"kinase still bound, per cent of control",MAP3K4 (human),100%
same,"kinase still bound, per cent of control",TSSK1B (human),94%
same,"kinase still bound, per cent of control",GRK4 (human),100%
same,"kinase still bound, per cent of control",MAP2K3 (human),87%
same,"kinase still bound, per cent of control",EPHB1 (human),96%
same,"kinase still bound, per cent of control",MUSK (human),100%
same,"kinase still bound, per cent of control",DYRK1B (human),100%
same,"kinase still bound, per cent of control",HIPK4 (human),43%
same,"kinase still bound, per cent of control",TNIK (human),96%
same,"kinase still bound, per cent of control",MST4 (human),82%
same,"kinase still bound, per cent of control",MAPKAPK2 (human),100%
same,"kinase still bound, per cent of control",[1],100%
same,"kinase still bound, per cent of control",DAPK1 (human),84%
same,"kinase still bound, per cent of control",MATK (human),79%
same,"kinase still bound, per cent of control",DAPK3 (human),83%
same,"kinase still bound, per cent of control",SRPK1 (human),100%
same,"kinase still bound, per cent of control",FES (human),100%
same,"kinase still bound, per cent of control",DCLK2 (human),100%
same,"kinase still bound, per cent of control",STK39 (human),67%
same,"kinase still bound, per cent of control",[2],100%
same,"kinase still bound, per cent of control",STK24 (human),97%
same,"kinase still bound, per cent of control",YSK4 (human),30%
same,"kinase still bound, per cent of control",DMPK (human),92%
same,"kinase still bound, per cent of control",PI4KB (human),93%
same,"kinase still bound, per cent of control",EPHB2 (human),100%
same,"kinase still bound, per cent of control",LATS1 (human),100%
same,"kinase still bound, per cent of control",[3],100%
same,"kinase still bound, per cent of control",MAPK3 (human),100%
same,"kinase still bound, per cent of control",CDK14 (human),100%
same,"kinase still bound, per cent of control",SIK1 (human),100%
same,"kinase still bound, per cent of control",[4],100%
